Results reported in US10457663B2, “Pyrazol-pyridine derivatives” (Hoffmann-La Roche Inc., priority 2016, dated 2019).

Columns and labels:
human EAAT3 = target: T1, human EAAT3 (Homo sapiens, UniProt P43005); test: FLIPR Membrane Potential (FMP) assay; type: cell-based; details: HEK-293 cells stably expressing human EAAT3; L-glutamate as agonist at EC80; antagonist applied 15 min before; Kb by Cheng-Prusoff from IC50
T1 construct: expressed in transfected cells; host or cells: HEK-293
T1 sequence (P43005 1-524): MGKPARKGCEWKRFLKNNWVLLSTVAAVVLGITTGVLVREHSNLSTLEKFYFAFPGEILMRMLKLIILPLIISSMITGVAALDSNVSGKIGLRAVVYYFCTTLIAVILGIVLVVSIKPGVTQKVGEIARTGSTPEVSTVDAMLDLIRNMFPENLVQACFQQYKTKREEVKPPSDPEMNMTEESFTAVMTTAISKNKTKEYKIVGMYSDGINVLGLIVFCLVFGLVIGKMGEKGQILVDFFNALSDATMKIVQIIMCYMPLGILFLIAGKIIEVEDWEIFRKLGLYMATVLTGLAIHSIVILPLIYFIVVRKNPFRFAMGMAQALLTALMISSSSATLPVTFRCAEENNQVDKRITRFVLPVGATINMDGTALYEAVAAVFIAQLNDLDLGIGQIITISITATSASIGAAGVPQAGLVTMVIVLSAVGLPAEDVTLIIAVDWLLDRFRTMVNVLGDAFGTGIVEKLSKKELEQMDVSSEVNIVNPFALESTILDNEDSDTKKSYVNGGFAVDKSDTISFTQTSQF
Protocol: The FLIPR Membrane Potential (FMP) assay
HEK-293 cells stably expressing human EAAT3 were seeded at 55 000 cells/well in growth medium (DMEM glutamate free (Invitrogen 11960-044), 1% Pen Strep (10 ml/l GIBCO BRL N^o 15140-023), 10% FCS non dialysed heat inactivated, 5 mg/l puromycin) in poly-D-lysine treated 96-well black microtiter plates with clear-bottom. After 24 h, the growth medium was removed and 100 μl/well of Krebs buffer (140 mM NaCl, 4.7 mM KCl, 2.5 mM CaCl2), 1.2 mM MgCl2, 11 mM HEPES, 10 mM D-glucose, pH=7.4) added. The cells were then loaded by adding 100 μl/well FMP assay dye (FLIPR Membrane Potential assay reagent, Molecular Devices). The 96-well plates were then incubated at 37° C. for 1 h. The depolarization of the cells will cause more dye to enter in the cells, where it will bind to intracellular proteins and lipids and cause an increase in the fluorescence signal. Antagonist potency at human EAAT3 was determined by using L-glutamate as agonist at a concentration which gives 80% of the maximum response. The antagonists were applied 15 min before the application of the agonist L-glutamate. The assays were performed at room temperature and measurements done by using a Fluorometric Imaging Plate Reader (FLIPR, Molecular Devices) and filter #2. Responses were measured as peak increase in fluorescence minus basal (i.e. fluorescence without addition of L-glutamate). Kb was determined using the Cheng-Prusoff equation Kb=IC50/[1+(A/EC50)], where IC50 is the concentration of the antagonist producing 50% inhibition, A is the concentration of the agonist against which the IC50 is being determined (at EC80) and EC50 is the concentration of the agonist producing 50% […].

Kb (human EAAT3)	melting point	Compound
0.86 µM	161 °C	CC(C)(NC(=O)c1cc(-c2ccc(Cl)cc2)nc(-c2ccnn2C(C)(C)C)c1)C1CC1 [Example 53, 2-(2-tert-Butyl-pyrazol-3-yl)-6-(4-chlorophenyl)-N-(2-cyclopropyl-propan-2-yl)-pyridine-4-carboxamide]
0.44 µM	206 °C	CC(C)(C)n1nccc1-c1cc(C(=O)NC(C)(C)C(F)(F)F)cc(-c2ccc(Cl)cc2)n1 [Example 54, 2-(2-tert-Butyl-pyrazol-3-yl)-6-(4-chlorophenyl)-N-(1,1,1-trifluoro-2-methyl-propan-2-yl)-pyridine-4-carboxamide]
0.073 µM	177 °C	CC(C)(CO)NC(=O)c1cc(-c2ccc(Cl)cc2)nc(-c2ccnn2C(C)(C)C)c1 [Example 55, 2-(2-tert-Butyl-pyrazol-3-yl)-6-(4-chlorophenyl)-N-(1-hydroxy-2-methyl-propan-2-yl)-pyridine-4-carboxamide]
0.21 µM	230 °C	CC(C)(C#N)NC(=O)c1cc(-c2ccc(Cl)cc2)nc(-c2ccnn2C(C)(C)C)c1 [Example 56, 2-(2-tert-Butyl-pyrazol-3-yl)-6-(4-chlorophenyl)-N-(2-cyano-propan-2-yl)-pyridine-4-carboxamide]
